Results from patent US12318477B2, “Injectable and inhalable formulations” (CYBIN UK LTD, priority 2021, dated 2025).
Marks after values point to notes of the source that are not given here.

What was measured:
[1] = pH-solubility in 0.5M Britton Robinson buffer at 25° C.; assay type: physicochemical; conditions: aqueous buffer, thermodynamic from solid, pH between about 4 and about 6
Procedure: Prior to adding N,N-dimethyltryptamine, a quantity of NaOH was added to the BR buffer as required to ensure the required pH. The total volume of BR buffer plus required amount of NaOH was 5 ml for each pH tested (pH 4, 5, 6, 7, 8, 9 & 10).

[2] = according to the Human Metabolome Database (HMDB); cited from earlier work
[3] = pH-stability in 40 mM Britton-Robinson buffer: content (assay) by HPLC
[4] = test system: human brain activity; conditions: human volunteers; cited from earlier work
[5] = pH-stability in 40 mM Britton-Robinson buffer: pH measurement; assay type: physicochemical; conditions: for pH: Day 17 (10 days storage at 40° C. followed by 7 days at 50° C.)
Description: On preparation of each formulation, there was a drop in pH in the range of 0.14 units (pH 4 formulation) to 1.29 units (pH 9 formulation) this being due to the acidic nature of the drug substance.

[6] = pH-stability in 40 mM Britton-Robinson buffer: related substances; assay type: physicochemical
[7] = Solubility of 20 mg/mL DMT fumarate in Britton-Robinson buffer at varied pH
[8] = In vivo pharmacokinetic (PK) profile following intramuscular (IM) dosing in rats; conditions: rat; for plasma levels at 30 mins compared with undeuterated DMT: […] (as fumarate) IM dose; for Cmax compared with DMT (SPL026): following IM dosing, p=0.005
[9] = nominal pH 4.0, Day 17 (10 days storage at 40° C. followed by 7 days at 50° C.)
[10] = nominal pH 5.0, Day 17 (10 days storage at 40° C. followed by 7 days at 50° C.)
[11] = nominal pH 6.0, Day 17 (10 days storage at 40° C. followed by 7 days at 50° C.)
[12] = nominal pH 6.5, Day 17 (10 days storage at 40° C. followed by 7 days at 50° C.)
[13] = nominal pH 7.0, Day 17 (10 days storage at 40° C. followed by 7 days at 50° C.)
[14] = nominal pH 7.0 sparged N2, Day 17 (10 days storage at 40° C. followed by 7 days at 50° C.)
[15] = nominal pH 7.5, Day 17 (10 days storage at 40° C. followed by 7 days at 50° C.)
[16] = nominal pH 8.0, Day 17 (10 days storage at 40° C. followed by 7 days at 50° C.)
[17] = nominal pH 9.0, Day 17 (10 days storage at 40° C. followed by 7 days at 50° C.)

In the case of CN(C)CCc1c[nH]c2ccccc12 [N,N-Dimethyltryptamine, N,N-dimethyltryptamine], the solubility [1] is given as ≥ 90 mg/mL and the stability in solution [2] is given as “degrades relatively quickly in solution”.

With CN(C)CCc1c[nH]c2ccccc12.O=C(O)/C=C/C(=O)O [SPL026, N,N-dimethyltryptamine (DMT) fumarate salt] the “concentration change on storage” value ([3]; all formulations pH 4 to 9 (nominal), Day 7 or Day 17) was “no significant concentration changes”, the Concentration ([3]; nominal pH 4.0, Day 7 (7 days storage at 40° C.)) was 2.57 mg/mL and the Concentration [3, 9] was 2.52 mg/mL. For the same molecule, the Concentration ([3]; nominal pH 4.0, Initial) was 2.47 mg/mL, the Concentration ([3]; nominal pH 5.0, Day 7 (7 days storage at 40° C.)) was 2.48 mg/mL and the Concentration [3, 10] was 2.52 mg/mL. The Concentration ([3]; nominal pH 5.0, Initial) was 2.50 mg/mL, the Concentration ([3]; nominal pH 6.0, Day 7 (7 days storage at 40° C.)) was 2.56 mg/mL and the Concentration [3, 11] was 2.48 mg/mL. The Concentration ([3]; nominal pH 6.0, Initial) was 2.51 mg/mL, the Concentration ([3]; nominal pH 6.5, Day 7 (7 days storage at 40° C.)) was 2.59 mg/mL and the Concentration [3, 12] was 2.51 mg/mL. For the same molecule, the Concentration ([3]; nominal pH 6.5, Initial) was 2.49 mg/mL, the Concentration ([3]; nominal pH 7.0, Day 7 (7 days storage at 40° C.)) was 2.54 mg/mL and the Concentration [3, 13] was 2.45 mg/mL. The Concentration ([3]; nominal pH 7.0, Initial) was 2.54 mg/mL, the Concentration ([3]; nominal pH 7.0 UV Light, Initial) was 2.54 mg/mL and the Concentration ([3]; nominal pH 7.0 UV Light, on completion of light stressing (200 watt hours UVA, 0.6 million luxhours)) was 2.26^a mg · mL^−1. It also gave a Concentration ([3]; nominal pH 7.0 sparged N2, Day 7 (7 days storage at 40° C.)) of 2.54 mg/mL, a Concentration [3, 14] of 2.51 mg/mL and a Concentration ([3]; nominal pH 7.0 sparged N2, Initial) of 2.54 mg/mL. It also gave a Concentration ([3]; nominal pH 7.5, Day 7 (7 days storage at 40° C.)) of 2.55 mg/mL, a Concentration [3, 15] of 2.46 mg/mL and a Concentration ([3]; nominal pH 7.5, Initial) of 2.50 mg/mL. The Concentration ([3]; nominal pH 8.0, Day 7 (7 days storage at 40° C.)) was 2.49 mg/mL, the Concentration [3, 16] was 2.42 mg/mL and the Concentration ([3]; nominal pH 8.0, Initial) was 2.49 mg/mL. The Concentration ([3]; nominal pH 9.0, Day 7 (7 days storage at 40° C.)) was 2.41 mg/mL, the Concentration [3, 17] was 2.46 mg/mL and the Concentration ([3]; nominal pH 9.0, Initial) was 2.47 mg/mL. The “alpha power (EEG) relative to placebo” value [4] was “suppressed”, the “delta and theta power (EEG) relative to placebo” value [4] was “normalized/increased” and the pH ([5]; nominal pH 7.0) was 6.10. For the same molecule, the pH ([5]; nominal pH 9.0) was 7.70, the “drop in pH on preparation” value ([5]; pH 4 formulation) was 0.14 units and the “drop in pH on preparation” value ([5]; pH 9 formulation) was 1.29 units. For the same molecule, the “related substances peaks at preparation” value ([6]; all formulations, […]) was “no related substances peaks were present”, the Total related substances [6, 9] was “ND (ND—<0.02 area of total peak area)” and the Total related substances [6, 10] was 0.07%. For the same molecule, the Total related substances [6, 11] was 0.09%, the Total related substances [6, 12] was 0.10% and the Total related substances [6, 13] was 0.26%. It also gave a Total related substances ([6]; nominal pH 7.0 UV Light, on completion of light stressing (200 watt hours UVA, 0.6 million luxhours), fumarate salt) of 1.68%, a Total related substances [6, 14] of 0.05% and a Total related substances [6, 15] of 0.42%. The Total related substances [6, 16] was 0.58%, the Total related substances [6, 17] was 0.61% and the “number of related substances peaks” value ([6]; pH 4, after 17 days storage) was “no peaks”. The “robustness of nitrogen sparged formulation versus unsparged equivalent” value ([6]; pH 7, after 17 days storage) was “significantly more robust”, the “number of related substances peaks” value ([6]; pH 9, after 17 days storage) was 3 and the “Individual related substance, percentage area of total peak area” value ([6]; relative retention time 0.54, nominal pH 7 UV light (200 watt hours UVA, 0.6 million luxhours)) was 0.05%. The “Individual related substance, percentage area of total peak area” value ([6]; relative retention time 0.62, nominal pH 7 UV light (200 watt hours UVA, 0.6 million luxhours)) was 0.17%, the “Individual related substance, percentage area of total peak area” value ([6]; relative retention time 0.64, nominal pH 7 UV light (200 watt hours UVA, 0.6 million luxhours)) was 0.54% and the “Individual related substance, percentage area of total peak area” value ([6]; relative retention time 0.73, nominal pH 7, Day 17 (10 days storage at 40° C., 7 days storage at 50° C.)) was 0.09%. The “Individual related substance, percentage area of total peak area” value ([6]; relative retention time 0.73, nominal pH 7 UV light (200 watt hours UVA, 0.6 million luxhours)) was 0.23%, the “Individual related substance, percentage area of total peak area” value ([6]; relative retention time 0.73, nominal pH 7.5, Day 17 (10 days storage at 40° C., 7 days storage at 50° C.)) was 0.14% and the “Individual related substance, percentage area of total peak area” value ([6]; relative retention time 0.73, nominal pH 8, Day 17 (10 days storage at 40° C., 7 days storage at 50° C.)) was 0.15%. For the same molecule, the “Individual related substance, percentage area of total peak area” value ([6]; relative retention time 0.73, nominal pH 9, Day 17 (10 days storage at 40° C., 7 days storage at 50° C.)) was 0.12%, the “Individual related substance, percentage area of total peak area” value ([6]; relative retention time 0.74, nominal pH 7 UV light (200 watt hours UVA, 0.6 million luxhours)) was 0.15% and the “Individual related substance, percentage area of total peak area” value ([6]; relative retention time 0.77, nominal pH 7 UV light (200 watt hours UVA, 0.6 million luxhours)) was 0.06%. For the same molecule, the “Individual related substance, percentage area of total peak area” value ([6]; relative retention time 0.91, nominal pH 7, Day 17 (10 days storage at 40° C., 7 days storage at 50° C.)) was 0.05%, the “Individual related substance, percentage area of total peak area” value ([6]; relative retention time 0.91, nominal pH 7.5, Day 17 (10 days storage at 40° C., 7 days storage at 50° C.)) was 0.07% and the “Individual related substance, percentage area of total peak area” value ([6]; relative retention time 0.91, nominal pH 8, Day 17 (10 days storage at 40° C., 7 days storage at 50° C.)) was 0.09%. The “Individual related substance, percentage area of total peak area” value ([6]; relative retention time 0.91, nominal pH 9, Day 17 (10 days storage at 40° C., 7 days storage at 50° C.)) was 0.11%, the “Individual related substance, percentage area of total peak area” value ([6]; relative retention time 0.95, nominal pH 8, Day 17 (10 days storage at 40° C., 7 days storage at 50° C.)) was 0.05% and the “Individual related substance, percentage area of total peak area” value ([6]; relative retention time 1.11, nominal pH 7.5, Day 17 (10 days storage at 40° C., 7 days storage at 50° C.)) was 0.12%. For the same molecule, the “Individual related substance, percentage area of total peak area” value ([6]; relative retention time 1.11, nominal pH 8, Day 17 (10 days storage at 40° C., 7 days storage at 50° C.)) was 0.22%, the “Individual related substance, percentage area of total peak area” value ([6]; relative retention time 1.11, nominal pH 9, Day 17 (10 days storage at 40° C., 7 days storage at 50° C.)) was 0.12% and the “Individual related substance, percentage area of total peak area” value ([6]; relative retention time 1.17, nominal pH 7 UV light (200 watt hours UVA, 0.6 million luxhours)) was 0.18%. The “Individual related substance, percentage area of total peak area” value ([6]; relative retention time 1.20, nominal pH 7 UV light (200 watt hours UVA, 0.6 million luxhours)) was 0.13%, the “Individual related substance, percentage area of total peak area” value ([6]; relative retention time 1.56, nominal pH 5, Day 17 (10 days storage at 40° C., 7 days storage at 50° C.)) was 0.07% and the “Individual related substance, percentage area of total peak area” value ([6]; relative retention time 1.56, nominal pH 6, Day 17 (10 days storage at 40° C., 7 days storage at 50° C.)) was 0.09%. For the same molecule, the “Individual related substance, percentage area of total peak area” value ([6]; relative retention time 1.56, nominal pH 6.5, Day 17 (10 days storage at 40° C., 7 days storage at 50° C.)) was 0.10%, the “Individual related substance, percentage area of total peak area” value ([6]; relative retention time 1.56, nominal pH 6.5 with N2 (sparged with nitrogen), Day 17 (10 days storage at 40° C., 7 days storage at 50° C.)) was 0.05% and the “Individual related substance, percentage area of total peak area” value ([6]; relative retention time 1.56, nominal pH 7, Day 17 (10 days storage at 40° C., 7 days storage at 50° C.)) was 0.12%. The “Individual related substance, percentage area of total peak area” value ([6]; relative retention time 1.56, nominal pH 7 UV light (200 watt hours UVA, 0.6 million luxhours)) was 0.10%, the “Individual related substance, percentage area of total peak area” value ([6]; relative retention time 1.56, nominal pH 7.5, Day 17 (10 days storage at 40° C., 7 days storage at 50° C.)) was 0.09% and the “Individual related substance, percentage area of total peak area” value ([6]; relative retention time 1.56, nominal pH 8, Day 17 (10 days storage at 40° C., 7 days storage at 50° C.)) was 0.07%. For the same molecule, the “Individual related substance, percentage area of total peak area” value ([6]; relative retention time 1.56, nominal pH 9, Day 17 (10 days storage at 40° C., 7 days storage at 50° C.)) was 0.38%, the “pH following overnight storage” value ([7]; 20 mg/mL, ambient conditions, each solution) was “no changes from the initial pH values” and the appearance of solution ([7]; 20 mg/mL, pH 8) was “hazy”. The appearance of solution ([7]; 20 mg/mL, pH 9 and pH 10) was “contained a precipitate”, the content after filtration ([7]; each solution, including high pH solutions where precipitate was present) was “approximately the same content” and the “dissolution in test formulation” value ([7]; nominal 20 mg/mL in Britton-Robinson buffer, only swirling and shaking) was “very soluble”.

In the case of O=C(O)/C=C/C(=O)O.[2H]C([2H])(Cc1c[nH]c2ccccc12)N(C)C [SPL028i, α,α,-bis-deuterium-N,N-dimethyltryptamine fumarate salt], the “increase in AUC0-inf at 10 mg/kg dose compared to […] dose level” value ([8]; IM) is reported as 237%, the “plasma levels at 30 mins compared with undeuterated DMT” value [8] is reported as “significantly higher plasma levels” and the “Cmax compared with DMT (SPL026)” value [8] is reported as “significantly higher”.

In the case of O=C(O)/C=C/C(=O)O.[2H]C([2H])([2H])N(C([2H])([2H])[2H])C([2H])([2H])Cc1c[nH]c2ccccc12 [SPL028viii, α,α,bis-deuterio-N,N-hexadeuterio-dimethyltryptamine fumarate salt], the “plasma levels at 30 mins compared with undeuterated DMT” value [8] is reported as “significantly higher plasma levels” and the “Cmax compared with DMT (SPL026)” value [8] is reported as “significantly higher”.
